We go through 35 molecules from US11208404B2 (PERENNA PHARMACEUTICALS, INC., priority 2017, dated 2021).

Usually inhibition stands for the relative decrease from the control value, in per cent. Higher therefore signals strong suppression. What is called IC50 is the concentration that inhibits the measured activity by half.

The target of the assay is ALCAT1 (Homo sapiens (Human), UniProt Q6UWP7). The experiment in a line: In vitro acyltransferase assay for ALCAT1 inhibitors. Type of assay: biochemical. The settings on record: for % inh @ 1 μM / inhibition at 1 µM: 1 μM compound; for % inh @ 1 μM / inhibition at 1 µM / inhibition at 10 µM: in vitro enzymatic assay; for IC50: ALCAT1 enzyme activity, triplicates, GraphPad, read-out: IC50; for inhibition at 10 µM: 10 μM compound. The text has this:
The human ALCAT1 protein were expressed in Spodoptera frugiperda (Sf9) insect cells by using a Bac-to-Bac baculovirus expression system (Invitrogen) according to the manufacturer's instruction. High-titer recombinant baculovirus expressing the human ALCAT1 protein was generated by several rounds of viral amplification. The Sf9 cells were typically infected with recombinant baculovirus for 3 days, harvested in ice-cold phosphate-buffered saline (PBS), and homogenized in 20 mm NaCl by going through French press. The total cell lysates were centrifuged at 10,000×g for 1 hours at 4° C. to eliminate the nucleus fraction, followed by ultracentrifugation at 100,000×g to pallet the membrane fraction. The membrane fraction was resuspended in enzymatic buffer that contain 10% glycerol, quantified for protein concentration, aliquoted, and stored at −80° C.
ALCAT1 enzymatic activity was determined by measuring the conversion of monolysocardiolipin (MLCL) to cardiolipin or lysophosphatidylglycerol (LPG) to phosphatidylglycerol (PG) in an enzymatic reaction mixture that contained 50 mm Tris/HCl, pH 7.0, 100 μm lysophospholipids, 25 μm [^14C]acyl-CoA (50 mCi/mmol, American Radiolabeled Chemicals, Inc), and membrane fraction (0.5-2.5 μg) in a total volume of 200 μl. The reaction was incubated at room temperature for 30 min. The lipids were extracted will chloroform, dried, and separated by thin layer chromatography (TLC) with chloroform:hexane:methanol:acetic acid (50:30:10:5, v/v) or chloroform:methanol:water (65:25:4, v/v). After separation, TLC plates were exposed to a Phosphorlmager screen to visualize the radiolabeled products with a Molecular Dynamics Typhoon Scanner (Sunnyvale, Calif.). In some experiments, NBD-CoA was used at 100 μM to replace the [^14C]acyl-CoA in the enzymatic reaction. All quantitative data were expressed as mean±S.E. Statistical analyses for differences between two groups were carried out using a Student's t test.
Compound inhibitors for ALCAT1 enzyme were analyzed by an in vitro enzymatic assay as detailed above. Compound inhibitors were added to the enzymatic mixture at 1-20 μM concentrations before the start of the acyltransferase reaction.
Where multiple measurements were taken this is indicated by a “/” between multiple values.
IC50 values for each compound were analyzed in triplicates, and calculated by GraphPad software.

Chain of ALCAT1 (Q6UWP7 whole entry): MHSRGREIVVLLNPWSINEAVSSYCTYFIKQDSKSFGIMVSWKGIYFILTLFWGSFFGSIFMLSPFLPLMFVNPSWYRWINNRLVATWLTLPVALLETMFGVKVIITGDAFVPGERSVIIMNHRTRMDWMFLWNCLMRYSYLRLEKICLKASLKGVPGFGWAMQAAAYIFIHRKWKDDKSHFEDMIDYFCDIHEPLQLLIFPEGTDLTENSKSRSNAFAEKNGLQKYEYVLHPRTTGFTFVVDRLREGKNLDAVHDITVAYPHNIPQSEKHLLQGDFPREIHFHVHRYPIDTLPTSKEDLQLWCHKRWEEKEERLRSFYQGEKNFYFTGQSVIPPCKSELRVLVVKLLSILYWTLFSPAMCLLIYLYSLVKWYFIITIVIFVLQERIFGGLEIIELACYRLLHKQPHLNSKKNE

Take `O=C(Nc1cc(F)cc(-c2nnc(-c3ccco3)o2)c1)c1ccccc1F` [Compound 130]: the “% inh @ 1 μM” value is reported as 57% and the inhibition at 1 µM was 50%.

As to `Cc1cc(NC(=O)c2ccccc2F)cc(-c2nnc(-c3ccco3)o2)c1` [Compound 132], the “% inh @ 1 μM” value came out at 39% and the inhibition at 1 µM turned out to be 26%.

For the molecule `O=C(Nc1cccc(-c2nnc(-c3ncco3)o2)c1)c1ccccc1F` [Compound 236], the “% inh @ 1 μM” value worked out at 8% and testing at 1 µM gave an inhibition of 7%.

As for `O=C(Nc1cccc(-c2nnc(-c3ccco3)o2)c1Cl)c1ccccc1F` [Compound 297], the “% inh @ 1 μM” value was 83%, at 1 µM the inhibition was 75% and the IC50 turned out to be 290 nM.

For the molecule `O=C(Nc1cc(Cl)ccc1F)c1cccc(-c2nnc(-c3ccco3)o2)c1` [Compound 229], the “% inh @ 1 μM” value was 97/97%, the inhibition at 1 µM turned out to be 97% and the IC50 stood at 170 nM.

Take `Cc1cccc(C(=O)Nc2cccc(-c3nnc(-c4ccco4)o3)c2)c1F` [Compound 190]: the inhibition at 1 µM stood at 80%, the inhibition at 10 µM turned out to be 100% and the IC50 is 290 nM.

The molecule `COc1ccc(Cl)cc1NC(=O)c1cc(-c2nnc(-c3ccco3)o2)ccc1F` [Compound 480, N-(5-chloro-2-methoxyphenyl)-2-fluoro-5-(5-(furan-2-yl)-1,3,4-oxadiazol-2-yl)benzamide] registered an inhibition at 1 µM of 96%.

For `O=C(Nc1ccccc1F)c1cccc(-c2nnc(-c3ccco3)o2)c1` [Compound 44, N-(2-fluorophenyl)-3-(5-(furan-2-yl)-1,3,4-oxadiazol-2-yl)benzamide], the inhibition at 1 µM worked out at 26% and the IC50 was 990 nM.

`O=C(Nc1cccc(-c2nnc(-c3ccco3)o2)c1)c1ccc(Br)cc1F` [Compound 73] displayed an inhibition at 1 µM of 15% and an inhibition at 10 µM of 66%.

Take `O=C(Nc1cccc(-c2nnc(-c3ccco3)o2)c1)c1cccc2c1OCO2` [Compound 178]: the inhibition at 1 µM was 27%.

In the case of `COc1ccc(Br)cc1C(=O)Nc1cccc(-c2nnc(-c3ccco3)o2)c1` [Compound 120, 5-Bromo-N-(3-(5-(furan-2-yl)-1,3,4-oxadiazol-2-yl)phenyl)-2-methoxybenzamide], the inhibition at 1 µM came to 94%, the inhibition at 10 µM is 100% and the IC50 was determined as 38 nM.

Take `COc1c(Br)cccc1C(=O)Nc1cccc(-c2nnc(-c3ccco3)o2)c1` [Compound 192, 3-Bromo-N-(3-(5-(furan-2-yl)-1,3,4-oxadiazol-2-yl)phenyl)-2-methoxybenzamide]: the “% inh @ 1 μM” value worked out at 93%, at 1 µM the inhibition was 89% and the IC50 was 92 nM.

In the case of `O=C(Nc1cccc(-c2nnc(-c3ccco3)o2)c1)c1cc([N+](=O)[O-])ccc1F` [Compound 336], the inhibition at 1 µM came out at 66%.

As to `O=C(Nc1cccc(-c2cnc(-c3ccco3)o2)c1)c1ccccc1F` [Compound 40], the IC50 amounted to 1700 nM.

`O=C(Nc1cccc(-c2nnc(-c3ccno3)o2)c1)c1ccccc1F` [Compound 42] returned an inhibition at 1 µM of 23% and an inhibition at 10 µM of 70%.

In turn, `COC(=O)c1ccccc1C(=O)Nc1cccc(-c2nnc(-c3ccco3)o2)c1` [Compound 75] showed an inhibition at 1 µM of 16% and an inhibition at 10 µM of 36%.

On to `O=C(Nc1cccc(-c2nnc(-c3ccco3)o2)c1)c1cccc(Cl)c1F` [Compound 186], for which the inhibition at 1 µM amounted to 92%, the inhibition at 10 µM was found to be 100% and the IC50 came to 390 nM.

As to `O=C(Nc1cccc(-c2nnc(-c3ccco3)o2)n1)c1ccccc1F` [Compound 53], testing at 1 µM gave an inhibition of 47% and the inhibition at 10 µM was found to be 90%.

With `COc1ccc(C)cc1C(=O)Nc1cccc(-c2nnc(-c3ccco3)o2)c1` [Compound 197, N-(3-(5-(Furan-2-yl)-1,3,4-oxadiazol-2-yl)phenyl)-2-methoxy-5-methylbenzamide], at 1 µM the inhibition was 80%, the inhibition at 10 µM came to 97% and the IC50 turned out to be 79 nM.

As for `Cc1ccc(F)c(C(=O)Nc2cccc(-c3nnc(-c4ccco4)o3)c2)c1` [Compound 176], the inhibition at 1 µM was determined as 73%, 10 µM produced 100% inhibition and the IC50 is 220 nM.

Take `O=C(Nc1cccc(-c2nnc(-c3ccco3)s2)c1)c1ccccc1F` [Compound 135]: the “% inh @ 1 μM” value is 62% and the inhibition at 1 µM came to 56%.

In the case of `Cc1c(NC(=O)c2ccccc2F)cccc1-c1nnc(-c2ccco2)o1` [Compound 78], the “% inh @ 1 μM” value amounted to 59% and at 1 µM the inhibition was 42%.

As to `O=C(Nc1cccc(-c2nnc(-c3ccco3)o2)c1)c1ccccc1I` [Compound 83], the inhibition at 1 µM turned out to be 36% and at 10 µM the inhibition was 43%.

The molecule `N#Cc1ccc(C(=O)Nc2cccc(-c3nnc(-c4ccco4)o3)c2)cc1` [Compound 36] displayed an inhibition at 10 µM of 1%.

Regarding `CC(C)COc1ccccc1C(=O)Nc1cccc(-c2nnc(-c3ccco3)o2)c1` [Compound 217], the “% inh @ 1 μM” value came out at 68% and the inhibition at 1 µM was found to be 69%.

Regarding `O=C(Nc1cccc(-c2nnc(-c3ccco3)o2)c1)c1cccc(Br)c1F` [Compound 191], the inhibition at 1 µM came to 82%, the inhibition at 10 µM came to 100% and the IC50 came to 330 nM.

As for `CCOc1ccccc1C(=O)Nc1cccc(-c2nnc(-c3ccco3)o2)c1` [Compound 174], 1 µM produced 96% inhibition, the inhibition at 10 µM is 100% and the IC50 is 110 nM.

With `O=C(Nc1cccc(-c2nnc(-c3ccco3)o2)c1)c1ccccc1OCC(F)(F)F` [Compound 223], the “% inh @ 1 μM” value is 90%, the inhibition at 1 µM was determined as 94% and the IC50 amounted to 150 nM.

Regarding `CCOc1ccc(Cl)cc1C(=O)Nc1cccc(-c2nnc(-c3ccco3)o2)c1` [Compound 122, 5-Chloro-2-ethoxy-N-(3-(5-(furan-2-yl)-1,3,4-oxadiazol-2-yl)phenyl)benzamide], testing at 1 µM gave an inhibition of 100%, the inhibition at 10 µM amounted to 100% and the IC50 came to 39 nM.

For the molecule `CCCOc1ccc(F)cc1C(=O)Nc1cccc(-c2nnc(-c3ccco3)o2)c1` [Compound 126], the inhibition at 1 µM worked out at 83%, testing at 10 µM gave an inhibition of 100% and the concentration for half-maximal inhibition (IC50) was found to be 110 nM.

Consider `O=C(Nc1cccc(-c2nnc(-c3ccco3)o2)c1)c1c(F)cccc1Cl` [Compound 145], for which 1 µM produced 9% inhibition and the inhibition at 10 µM was 38%.

Consider `O=C(Nc1cccc(-c2nnc(-c3ccco3)o2)c1)c1cccc(Cl)c1Cl` [Compound 150], for which the inhibition at 1 µM was found to be 72%, at 10 µM the inhibition was 92% and the IC50 is 410 nM.

As to `O=C(Nc1cccc(-c2nnc(-c3ccco3)o2)c1)c1cc(F)ccc1F` [Compound 195], the inhibition at 1 µM stood at 70%, testing at 10 µM gave an inhibition of 88% and the IC50 turned out to be 360 nM.

Regarding `O=C(Nc1cccc(-c2nnc(-c3ccco3)o2)c1)c1cc(Br)ccc1I` [Compound 141], 1 µM produced 65% inhibition and the inhibition at 10 µM came out at 67%.

`O=C(Nc1cccc(-c2nnc(-c3ccco3)o2)c1)c1ccccc1C(F)(F)F` [Compound 7] had an inhibition at 10 µM of 3%.
